The experiment has as its system acute hypoxia-induced pulmonary hypertension. The experiment is described as follows: Acute hypoxia-induced pulmonary hypertension in rats (mean pulmonary arterial pressure). It is filed as in vivo, rat. The protocol:
Measurement of Pulmonary and Systemic Arterial Pressure
Male Sprague-Dawley rats were obtained from Charles River Breeding Laboratories (Wilmington, Mass.) at 9-10 wk of age. For pulmonary arterial pressure measurement, a closed-chest technique (1-4). Under ketamine (80 mg/kg) and xylazine (5 mg/kg) anesthesia, a small transverse cut was made in the proximal right external jugular vein through passed. The introducer was a blunted 7.5 cm, 19-gauge needle with the tip turned up 30 degrees. The Silastic catheter filled with heparinsaline solution was passed through the introducer and attached by a 25 gauge blunted needle to a pressure transducer (model CP-01, Century Technology, Inglewood, Calif.) coupled to a polygraph (model 7, Grass Instruments, Quincy, Mass.). After the introducer was placed in the right ventricular cavity, the tip was directed anteriorly. The catheter was then advanced into the pulmonary artery. Catheter position was identified by the pressure tracing. The introducer was slipped out over the catheter and removed after a typical pulmonary arterial pressure tracing was recorded. […] One day after catheterization, mean pulmonary arterial pressure (MPAP), mean systemic arterial pressure (MSAP) were recorded through the pulmonary and femora arterial catheters via transducers coupled to the polygraph. […]

As for `CN1CCCC[C@H]1CCc1ccccc1NC(=O)/C=C/c1ccccc1` [Iferanserin, S-2′-[2-(1-methyl-2-piperidyl)ethyl] cinnamanilide], where the note is “adult male Sprague-Dawley rats, 3 and 10 mg/kg p.o., given 45 min before normobaric hypoxia (10% O2) for 90 min”, the “effect on acute hypoxia-induced pulmonary hypertension” value is given as “partially inhibited”. Where the note is “adult rats, within the range of 3-10 mg/kg, p.o.”, the “dose dependence of the effect on acute hypoxia-induced pulmonary hypertension” value was “no dose-dependent response”.

The values above are taken from US8324247B2, “Method for treating pulmonary arterial hypertension” (Ventrus Biosciences, Inc., priority 2009, dated 2012).
